Format in all cases: cell-based
One test has as its target T1, APOL1 G2 (Homo sapiens, UniProt O14791, DEL388-389).
T1 construct: expressed in transfected cells; host or cells: HEK293 T-REx clonal line stably expressing GCaMP6f (HEK T-REx/GCaMP6f/APOL1 G2 K6.3), doxycycline induced
T1 sequence (O14791 with tags, fused parts or gaps DEL388-389): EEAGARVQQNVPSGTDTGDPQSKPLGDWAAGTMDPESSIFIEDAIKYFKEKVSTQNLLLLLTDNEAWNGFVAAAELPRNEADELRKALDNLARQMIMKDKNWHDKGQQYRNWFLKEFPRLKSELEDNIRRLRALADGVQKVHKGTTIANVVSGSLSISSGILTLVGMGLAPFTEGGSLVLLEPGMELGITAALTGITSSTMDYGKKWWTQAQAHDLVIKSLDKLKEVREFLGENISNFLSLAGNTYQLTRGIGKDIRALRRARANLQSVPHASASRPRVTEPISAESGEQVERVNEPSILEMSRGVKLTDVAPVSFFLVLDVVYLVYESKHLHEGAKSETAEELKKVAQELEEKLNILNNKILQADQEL
Put plainly: APOL1-mediated calcium transport (calcium influx) assay, HEK T-REx/GCaMP6f/APOL1 G2 K6.3 cells, FLIPR TETRA. The settings on record: prevention of calcium influx; geometric mean of at least 2 assay runs; † = average of a technical replicate from a single assay run. Summed up:
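A HEK293 T-REx clone stably expressing GCaMP6f had APOL1 G2 induced with doxycycline (20 ng/mL solution added) for 6 h. Cells were then washed into Ca2+-free Tyrode's buffer (pH 7.4) and preincubated with compounds (duplicate 8-point) for 10 min at room temperature. Ca2+ injection to 5 mM final produced FLIPR GCaMP fluorescence, giving AC50 for influx inhibition (geometric mean, ≥2 runs).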

Test [1] deals with HEK293 clonal cell line overexpressing APOL1 G1. Put plainly: APOL1 G1 HEK293 cell rescue assay (Example B3). Conditions: Homo sapiens, HEK293, HEK293 clonal line overexpressing APOL1 G1; geometric mean of at least 2 runs; † = single run; ¥ = concentration at 50% rescue estimated (no sigmoidal curve). Summed up:
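HEK293 clonal line overexpressing APOL1 G1; EC50 is half-maximal reversal of APOL1-induced cell death. Values are the geometric mean of ≥2 runs on separate days, each run the average of duplicate wells. Where no sigmoidal curve could be fitted, the concentration giving 50% rescue was estimated.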

In test [2] the test system is HEK293 cells overexpressing APOL1 G2. Put plainly: APOL1 G2 HEK293 cell rescue assay (reversal of cell death caused by overexpression of APOL1). The settings on record: Homo sapiens, HEK293, HEK293 overexpressing APOL1 G2; geometric mean of at least 2 assay runs; † = single assay run. Summed up:
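EC50 is the half-maximal effective concentration for reversing cell death driven by APOL1 G2 overexpression in HEK293 cells. Reported as geometric mean of at least 2 runs on separate days, each run averaging duplicate wells per plate; some values from a single run.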

For orientation: AC50 means the concentration giving half of the maximal activity seen. By EC50 is commonly meant the concentration that produces a half-maximal response.

Bounds are passed on as bounds.

Consider `O=C1OC2(COC2)c2ccc(OCCN3CCC4(CC3)C(=O)Nc3ccc(Cl)cc34)cc21` [Compound 179, 5-chloro-1′-(2-{3-oxo-3H-spiro[2-benzofuran-1,3′-oxetan]-5-yloxy}ethyl)-1,2-dihydrospiro[indole-3,4′-piperidin]-2-one], for which the AC50 on APOL1 G2 is 655 nM. Moreover, the results for the half-maximal effective concentration (EC50) in test [1] and in test [2] were 484 nM and 164 nM, respectively.
Taken in the same sequence, the figures for `CS(=O)(=O)C1(c2ccc(OCCN3CCC4(CC3)C(=O)Nc3ccc(C#N)cc34)cc2)CCOCC1` [Compound 187, 1′-{2-[4-(4-methanesulfonyloxan-4-yl)phenoxy]ethyl}-2-oxo-1,2-dihydrospiro[indole-3,4′-piperidine]-5-carbonitrile] were 1220 nM, 1260 nM and 268 nM.
On to `CC1(O)CC(CN2C(=O)CCc3cc(OCCN4CCC5(CC4)C(=O)Nc4ccc(C(F)F)cc45)cnc32)C1` (stereo not drawn) [Compound 320, 5-(difluoromethyl)-1′-[2-({8-[(3-hydroxy-3-methylcyclobutyl)methyl]-7-oxo-5,6,7,8-tetrahydro-1,8-naphthyridin-3-yl}oxy)ethyl]-1,2-dihydrospiro[indole-3,4′-piperidin]-2-one], for which the concentration at half-maximal activity (AC50) on APOL1 G2 was 787 nM. The concentration giving a half-maximal response (EC50) was 53.9 nM in test [1] and 22.1 nM in test [2].
The matching figures for `[2H]C([2H])([2H])N1C(=O)C2(CCN(CCOc3ccc(S(C)(=O)=NC)c(C(F)(F)F)c3)CC2)c2cc(Cl)ccc21` (stereo not drawn) [Compound 413, 5-chloro-1-(^2H3)methyl-1′-(2-{4-[methyl(methylimino)oxo-λ^6-sulfanyl]-3-(trifluoromethyl)phenoxy)ethyl)-1,2-dihydrospiro[indole-3,4′-piperidin]-2-one]: 251 nM, 208 nM and 60.3 nM.
Taken in the same sequence, the figures for `CN(C)C(=O)c1ccc(OCCN2CCC3(CC2)C(=O)Nc2ccc(Cl)cc23)cn1` [Compound 51] were 953 nM, 1250 nM and 214 nM.
The matching figures for `CC(COc1ccc(S(C)(=O)=O)cc1)N1CCC2(CC1)C(=O)Nc1ccccc12` (stereo not drawn) [Compound 28, 1′-(1-(4-(methylsulfonyl)phenoxy)propan-2-yl)spiro[indoline-3,4′-piperidin]-2-one]: under 434 nM, 655 nM and 799 nM.
In the case of `CS(=O)(=O)c1ccc(OCCN2CCC3(CC2)C(=O)N(CCO)c2ccc(C#N)cc23)cc1C(F)(F)F` [Compound 159, 1-(2-hydroxyethyl)-1′-{2-[4-methanesulfonyl-3-(trifluoromethyl)phenoxy]ethyl}-2-oxo-1,2-dihydrospiro[indole-3,4′-piperidine]-5-carbonitrile], the AC50 on APOL1 G2 is 1010 nM. The EC50 is 588 nM in test [1] and 168 nM in test [2].
Taken in the same sequence, the figures for `CC(COc1ccc2c(c1)CCC(=O)N2C)N1CCC2(CC1)C(=O)Nc1ccc(Cl)cc12` (stereo not drawn) [Compound 199, 5-chloro-1′-{1-[(1-methyl-2-oxo-1,2,3,4-tetrahydroquinolin-6-yl)oxy]propan-2-yl}-1,2-dihydrospiro[indole-3,4′-piperidin]-2-one] were 1130 nM, 312 nM and 148 nM.
The matching figures for `O=C1CCc2cc(OCCN3CCC4(CC3)C(=O)Nc3ccc(C(F)F)cc34)cnc2N1C1CC(CO)C1` (stereo not drawn) [Compound 316, 5-(difluoromethyl)-1′-[2-({8-[3-(hydroxymethyl)cyclobutyl]-7-oxo-5,6,7,8-tetrahydro-1,8-naphthyridin-3-yl}oxy)ethyl]-1,2-dihydrospiro[indole-3,4′-piperidin]-2-one]: 1150 nM, 99.4 nM and 32.7 nM.

The values above are taken from patent publication US12344610B2, “APOL1 inhibitors and methods of use” (Maze Therapeutics, Inc., priority 2022, dated 2025).
